The target of this experiment is IKZF2 (Homo sapiens (Human), UniProt Q96SW2+Q9UKS7). The experiment in a line: IKZF2 HiBiT Assay (Jurkat-IKZF2-HiBiT cell line). The class given is cell-based. The conditions noted are these: Jurkat-IKZF2-HiBiT cells, 24 hours; for DC50: read-out: HiBit assay degradation analysis DC50; for Dmax: read-out: HiBit assay degradation analysis Dmax. The gist of the method:
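Jurkat cells carrying HiBiT-tagged IKZF2 were exposed to serially diluted compound for 24 h at 37 °C. Remaining IKZF2 was measured by Nano-Glo HiBiT lytic luminescence after 10-20 min at room temperature. Signal was normalized to DMSO, and IC50 came from a four-parameter variable-slope fit.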
Background: With HiBiT, luminescence reflects the tagged protein that the partner subunit can reach.

Molecules are shown by their SMILES.

The DC50 is the midpoint of the concentration-degradation curve. What is called Dmax is the largest share of the target that was removed.

Sequence of IKZF2 (Q9UKS7 whole entry): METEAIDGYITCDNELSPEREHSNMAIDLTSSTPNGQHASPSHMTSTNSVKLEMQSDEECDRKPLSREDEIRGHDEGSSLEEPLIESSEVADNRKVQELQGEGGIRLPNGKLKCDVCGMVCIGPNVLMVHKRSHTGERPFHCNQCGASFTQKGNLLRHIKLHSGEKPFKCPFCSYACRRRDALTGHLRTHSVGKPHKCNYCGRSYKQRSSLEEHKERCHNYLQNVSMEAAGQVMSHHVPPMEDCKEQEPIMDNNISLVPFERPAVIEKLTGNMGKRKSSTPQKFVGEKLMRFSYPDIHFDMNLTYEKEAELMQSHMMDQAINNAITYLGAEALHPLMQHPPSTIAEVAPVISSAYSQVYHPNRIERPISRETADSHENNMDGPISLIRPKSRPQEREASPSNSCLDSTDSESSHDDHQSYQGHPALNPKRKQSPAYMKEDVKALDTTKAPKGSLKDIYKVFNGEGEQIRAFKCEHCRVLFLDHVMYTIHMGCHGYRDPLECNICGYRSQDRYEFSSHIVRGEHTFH
Sequence of IKZF2 (Q96SW2 whole entry): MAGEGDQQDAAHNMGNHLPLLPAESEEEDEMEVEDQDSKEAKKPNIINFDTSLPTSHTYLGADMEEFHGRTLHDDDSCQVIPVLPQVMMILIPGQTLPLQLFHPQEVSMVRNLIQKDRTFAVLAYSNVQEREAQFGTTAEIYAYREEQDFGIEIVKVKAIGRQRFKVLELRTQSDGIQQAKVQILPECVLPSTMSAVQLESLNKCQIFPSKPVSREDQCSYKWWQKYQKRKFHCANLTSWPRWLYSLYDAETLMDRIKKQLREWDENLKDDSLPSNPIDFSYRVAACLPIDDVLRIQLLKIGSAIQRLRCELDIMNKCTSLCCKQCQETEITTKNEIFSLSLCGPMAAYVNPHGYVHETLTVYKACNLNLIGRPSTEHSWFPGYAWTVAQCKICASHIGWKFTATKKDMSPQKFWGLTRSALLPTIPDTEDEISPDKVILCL
Sequence of IKZF2 (Q16531 whole entry partner): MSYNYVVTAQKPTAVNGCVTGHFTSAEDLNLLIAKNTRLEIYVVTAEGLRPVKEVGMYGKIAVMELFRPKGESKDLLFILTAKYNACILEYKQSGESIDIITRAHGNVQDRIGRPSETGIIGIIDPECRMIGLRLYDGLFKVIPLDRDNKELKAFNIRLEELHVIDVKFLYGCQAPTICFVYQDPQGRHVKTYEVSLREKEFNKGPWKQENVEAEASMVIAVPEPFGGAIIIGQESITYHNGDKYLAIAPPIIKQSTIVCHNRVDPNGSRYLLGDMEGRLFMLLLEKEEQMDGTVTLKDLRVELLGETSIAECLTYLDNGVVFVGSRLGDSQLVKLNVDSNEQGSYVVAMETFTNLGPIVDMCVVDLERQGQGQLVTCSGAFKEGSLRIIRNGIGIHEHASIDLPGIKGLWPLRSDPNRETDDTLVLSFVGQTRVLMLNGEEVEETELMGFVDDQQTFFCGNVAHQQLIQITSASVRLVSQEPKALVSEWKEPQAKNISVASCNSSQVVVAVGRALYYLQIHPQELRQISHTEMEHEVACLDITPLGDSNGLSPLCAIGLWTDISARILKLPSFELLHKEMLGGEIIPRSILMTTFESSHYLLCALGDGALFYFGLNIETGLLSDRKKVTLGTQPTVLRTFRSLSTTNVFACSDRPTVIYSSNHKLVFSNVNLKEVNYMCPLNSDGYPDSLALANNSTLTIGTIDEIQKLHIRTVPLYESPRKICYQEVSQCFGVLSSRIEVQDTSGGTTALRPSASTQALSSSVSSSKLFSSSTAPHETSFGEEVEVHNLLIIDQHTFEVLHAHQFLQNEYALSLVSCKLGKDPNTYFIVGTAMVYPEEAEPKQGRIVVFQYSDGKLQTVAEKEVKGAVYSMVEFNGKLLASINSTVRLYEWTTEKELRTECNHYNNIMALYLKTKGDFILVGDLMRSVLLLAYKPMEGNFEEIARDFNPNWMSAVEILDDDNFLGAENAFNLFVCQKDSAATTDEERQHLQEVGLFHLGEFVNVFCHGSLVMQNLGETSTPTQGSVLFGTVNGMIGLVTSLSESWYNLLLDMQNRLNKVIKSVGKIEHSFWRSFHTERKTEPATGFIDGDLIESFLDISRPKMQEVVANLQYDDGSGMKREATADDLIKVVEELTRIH

For `O=C1CCC(N2Cc3c(ccc4c3OCC43CCN(Cc4cnn(S(=O)(=O)c5ccc(F)cc5)c4)CC3)C2=O)C(=O)N1` [Compound A354, (S)-3-(1′-((1-((4-fluorophenyl)sulfonyl)-1H-pyrazol-4-yl)methyl)-6-oxo-6,8-dihydro-2H,7H-spiro[furo[2,3-e]isoindole-3,4′-piperidin]-7-yl)piperidine-2,6-dione], the DC50 is greater than 500 nM.

For the molecule `O=C1CCC(N2Cc3c(ccc4c3OCC43CCN(Cc4cccc(-c5nccs5)c4)CC3)C2=O)C(=O)N1` (centres unmarked) [Compound A106, 3-(6-oxo-1′-(3-(thiazol-2-yl)benzyl)-6,8-dihydro-2H,7H-spiro[furo[2,3-e]isoindole-3,4′-piperidin]-7-yl)piperidine-2,6-dione], the DC50 was less than 50 nM and the greatest degradation seen (Dmax) lay within 60 to 80%.

For `O=C1CCC(N2Cc3c(ccc4c3OCC43CCN(Cc4ccn(-c5ccc(F)cc5)n4)CC3)C2=O)C(=O)N1` (centres unmarked) [Compound A322, 3-(1′-((1-(4-fluorophenyl)-1H-pyrazol-3-yl)methyl)-6-oxo-6,8-dihydro-2H,7H-spiro[furo[2,3-e]isoindole-3,4′-piperidin]-7-yl)piperidine-2,6-dione], the DC50 is greater than 500 nM and the Dmax is less than 40%.

Consider `O=C1CCC(N2Cc3c(ccc4c3OCC43CCN(Cc4cccc5ccsc45)CC3)C2=O)C(=O)N1` (centres unmarked) [Compound A189, 3-(1′-(benzo[b]thiophen-7-ylmethyl)-6-oxo-6,8-dihydro-2H,7H-spiro[furo[2,3-e]isoindole-3,4′-piperidin]-7-yl)piperidine-2,6-dione], for which the 50% degradation concentration (DC50) lay in the range of 50 to 200 nM and the maximal degradation (Dmax) lay within 60 to 80%.

Consider `O=C1CCC(N2Cc3c(ccc4c3OCC43CCN(Cc4cnn(CC5CCOCC5)c4)CC3)C2=O)C(=O)N1` (centres unmarked) [Compound A233, 3-(6-oxo-1′-((1-((tetrahydro-2H-pyran-4-yl)methyl)-1H-pyrazol-4-yl)methyl)-6,8-dihydro-2H,7H-spiro[furo[2,3-e]isoindole-3,4′-piperidin]-7-yl)piperidine-2,6-dione], for which the DC50 lay within 200 to 500 nM and the greatest degradation seen (Dmax) was in the range of 60 to 80%.

Regarding `O=C1CC[C@H](N2Cc3c(ccc4c3OCC43CCN(Cc4cccc(-c5cnn([C@@H]6CCOC6)c5)c4)CC3)C2=O)C(=O)N1` [Compound A270, (S)-3-(6-oxo-1′-(3-(1-((R)-tetrahydrofuran-3-yl)-1H-pyrazol-4-yl)benzyl)-6,8-dihydro-2H,7H-spiro[furo[2,3-e]isoindole-3,4′-piperidin]-7-yl)piperidine-2,6-dione], the half-maximal degradation concentration (DC50) was less than 50 nM and the greatest degradation seen (Dmax) fell in the range of 60 to 80%.

On to `O=C1CCC(N2Cc3c(ccc4c3OCC43CCN(Cc4ccc5[nH]cnc5c4)CC3)C2=O)C(=O)N1` (centres unmarked) [Compound A70, 3-(1′-((1H-benzo[d]imidazol-5-yl)methyl)-6-oxo-6,8-dihydro-2H,7H-spiro[furo[2,3-e]isoindole-3,4′-piperidin]-7-yl)piperidine-2,6-dione], for which the DC50 fell in the range of 200 to 500 nM and the Dmax lay within 60 to 80%.

On to `Cn1cc(-c2ccc(CN3CCC4(CC3)COc3c4ccc4c3CN(C3CCC(=O)NC3=O)C4=O)s2)cn1` (centres unmarked) [Compound A190, 3-(1′-((5-(1-methyl-1H-pyrazol-4-yl)thiophen-2-yl)methyl)-6-oxo-6,8-dihydro-2H,7H-spiro[furo[2,3-e]isoindole-3,4′-piperidin]-7-yl)piperidine-2,6-dione], for which the half-maximal degradation concentration (DC50) is greater than 500 nM and the Dmax was in the range of 40 to 60%.

Consider `O=C1CCC(N2Cc3c(ccc4c3OCC43CCN(Cc4cccc(-n5ccnc5)c4)CC3)C2=O)C(=O)N1` (centres unmarked) [Compound A108, 3-(1′-(3-(1H-imidazol-1-yl)benzyl)-6-oxo-6,8-dihydro-2H,7H-spiro[furo[2,3-e]isoindole-3,4′-piperidin]-7-yl)piperidine-2,6-dione], for which the DC50 was greater than 500 nM and the greatest degradation seen (Dmax) fell in the range of 40 to 60%.

As for `O=C1CCC(N2Cc3c(ccc4c3OCC43CCN(CC4CCOCC4)CC3)C2=O)C(=O)N1` (centres unmarked) [Compound A20, 3-(6-oxo-1′-((tetrahydro-2H-pyran-4-yl)methyl)-6,8-dihydro-2H,7H-spiro[furo[2,3-e]isoindole-3,4′-piperidin]-7-yl)piperidine-2,6-dione], the DC50 was greater than 500 nM and the greatest degradation seen (Dmax) is less than 40%.

`CC(C)Oc1cc(F)ccc1CN1CCC2(CC1)COc1c2ccc2c1CN([C@H]1CCC(=O)NC1=O)C2=O` [Compound A361, (S)-3-(1′-(4-fluoro-2-isopropoxybenzyl)-6-oxo-6,8-dihydro-2H,7H-spiro[furo[2,3-e]isoindole-3,4′-piperidin]-7-yl)piperidine-2,6-dione]: the DC50 was greater than 500 nM and the Dmax is 40 to 60%.

With `O=C1CCC(N2Cc3c(ccc4c3OCC43CCN(CC4CCC(c5ccccc5)CC4)CC3)C2=O)C(=O)N1` (centres unmarked) [Compound A89, 3-(6-oxo-1′-((4-phenylcyclohexyl)methyl)-6,8-dihydro-2H,7H-spiro[furo[2,3-e]isoindole-3,4′-piperidin]-7-yl)piperidine-2,6-dione], the 50% degradation concentration (DC50) was in the range of 50 to 200 nM and the Dmax fell in the range of 60 to 80%.

`O=C1CCC(N2Cc3c(ccc4c3OCC43CCN(CC4CCN(c5ccccc5)CC4)CC3)C2=O)C(=O)N1` (centres unmarked) [Compound A123, 3-(6-oxo-1′-((1-phenylpiperidin-4-yl)methyl)-6,8-dihydro-2H,7H-spiro[furo[2,3-e]isoindole-3,4′-piperidin]-7-yl)piperidine-2,6-dione]: the 50% degradation concentration (DC50) is greater than 500 nM and the Dmax was 40 to 60%.

For `CN(C)S(=O)(=O)c1ccc(CN2CCC3(CC2)COc2c3ccc3c2CN(C2CCC(=O)NC2=O)C3=O)cc1` (centres unmarked) [Compound A210, 4-((7-(2,6-dioxopiperidin-3-yl)-6-oxo-7,8-dihydro-2H,6H-spiro[furo[2,3-e]isoindole-3,4′-piperidin]-1′-yl)methyl)-N,N-dimethylbenzenesulfonamide], the DC50 was greater than 500 nM and the Dmax is less than 40%.

For `CC1(C)Cc2c(CN3CCC4(CC3)COc3c4ccc4c3CN(C3CCC(=O)NC3=O)C4=O)cccc2O1` (centres unmarked) [Compound A326, 3-(1′-((2,2-dimethyl-2,3-dihydrobenzofuran-4-yl)methyl)-6-oxo-6,8-dihydro-2H,7H-spiro[furo[2,3-e]isoindole-3,4′-piperidin]-7-yl)piperidine-2,6-dione], the DC50 is greater than 500 nM and the Dmax fell in the range of 40 to 60%.

For the molecule `O=C1CC[C@H](N2Cc3c(ccc4c3OCC43CCN(Cc4cccc(-c5cnn(C[C@@H]6COCCO6)c5)c4)CC3)C2=O)C(=O)N1` [Compound A272, (S)-3-(1′-(3-(1-(((R)-1,4-dioxan-2-yl)methyl)-1H-pyrazol-4-yl)benzyl)-6-oxo-6,8-dihydro-2H,7H-spiro[furo[2,3-e]isoindole-3,4′-piperidin]-7-yl)piperidine-2,6-dione], the DC50 fell in the range of 50 to 200 nM and the maximal degradation (Dmax) lay in the range of 60 to 80%.

Take `O=C1CCC(N2Cc3c(ccc4c3OCC43CCN(Cc4cccc5ccoc45)CC3)C2=O)C(=O)N1` (centres unmarked) [Compound A115, 3-(1′-(benzofuran-7-ylmethyl)-6-oxo-6,8-dihydro-2H,7H-spiro[furo[2,3-e]isoindole-3,4′-piperidin]-7-yl)piperidine-2,6-dione]: the DC50 was 50 to 200 nM and the Dmax was 60 to 80%.

Turning to `O=C1CC[C@H](N2Cc3c(ccc4c3OCC43CCN(C[C@H]4C[C@@H](Oc5ccc(F)cc5)C4)CC3)C2=O)C(=O)N1` [Compound A358, (S)-3-(1′-(((1s,3R)-3-(4-fluorophenoxy)cyclobutyl)methyl)-6-oxo-6,8-dihydro-2H,7H-spiro[furo[2,3-e]isoindole-3,4′-piperidin]-7-yl)piperidine-2,6-dione], the DC50 was greater than 500 nM and the greatest degradation seen (Dmax) lay in the range of 40 to 60%.

For `COc1ccc(CN2CCC3(CC2)COc2c3ccc3c2CN(C2CCC(=O)NC2=O)C3=O)cc1` (centres unmarked) [Compound A211, 3-(1′-(4-methoxybenzyl)-6-oxo-6,8-dihydro-2H,7H-spiro[furo[2,3-e]isoindole-3,4′-piperidin]-7-yl)piperidine-2,6-dione], the half-maximal degradation concentration (DC50) is greater than 500 nM and the Dmax was less than 40%.

In the case of `Cc1ccc(C(=O)Nc2cccc(CN3CCC4(CC3)OCc3c4ccc4c3CN(C3CCC(=O)NC3=O)C4=O)c2)cc1` (centres unmarked) [Compound A263, N-(3-((7-(2,6-dioxopiperidin-3-yl)-6-oxo-1,6,7,8-tetrahydrospiro[furo[3,4-e]isoindole-3,4′-piperidin]-1′-yl)methyl)phenyl)-4-methylbenzamide], the DC50 was less than 50 nM and the greatest degradation seen (Dmax) lay within 60 to 80%.

With `O=C1CCC(N2Cc3c(ccc4c3OCC43CCN(Cc4cccc(-c5cnn(C6CCOCC6)c5)c4)CC3)C2=O)C(=O)N1` (centres unmarked) [Compound A147, 3-(6-oxo-1′-(3-(1-(tetrahydro-2H-pyran-4-yl)-1H-pyrazol-4-yl)benzyl)-6,8-dihydro-2H,7H-spiro[furo[2,3-e]isoindole-3,4′-piperidin]-7-yl)piperidine-2,6-dione], the DC50 was less than 50 nM and the greatest degradation seen (Dmax) was in the range of 60 to 80%.

In the case of `O=C1CCC(N2Cc3c(ccc4c3OCC43CCN(Cc4ccnn4C4CCOCC4)CC3)C2=O)C(=O)N1` (centres unmarked) [Compound A255, 3-(6-oxo-1′-((1-(tetrahydro-2H-pyran-4-yl)-1H-pyrazol-5-yl)methyl)-6,8-dihydro-2H,7H-spiro[furo[2,3-e]isoindole-3,4′-piperidin]-7-yl)piperidine-2,6-dione], the DC50 is greater than 500 nM and the Dmax was less than 40%.

With `O=C1CCC(N2Cc3c(ccc4c3OCC43CCN(CC4(c5ccccc5)CCC4)CC3)C2=O)C(=O)N1` (centres unmarked) [Compound A334, 3-(6-oxo-1′-((1-phenylcyclobutyl)methyl)-6,8-dihydro-2H,7H-spiro[furo[2,3-e]isoindole-3,4′-piperidin]-7-yl)piperidine-2,6-dione], the half-maximal degradation concentration (DC50) was greater than 500 nM and the maximal degradation (Dmax) lay within 40 to 60%.

Regarding `Cn1ccc2c(CN3CCC4(CC3)COc3c4ccc4c3CN(C3CCC(=O)NC3=O)C4=O)cccc21` (centres unmarked) [Compound A109, 3-(1′-((1-methyl-1H-indol-4-yl)methyl)-6-oxo-6,8-dihydro-2H,7H-spiro[furo[2,3-e]isoindole-3,4′-piperidin]-7-yl)piperidine-2,6-dione], the DC50 is less than 50 nM and the Dmax was 60 to 80%.
